From the supplement of paper PMC8024199
± gives the standard deviation of the averaged measurements.

Columns and labels:
Assay in all cases: drug sensitivity score (DSS) (DSS score); higher = more sensitive (stronger growth inhibition); extreme values may be limits of the assay
[1] = tested on: Ba/F3 P210-BCR-ABL1 RUNX1-/mut (mouse)
Method in brief: (§1)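 A drug sensitivity score summarised each dose-response curve, with luminescence from CellTiter-Glo scaled between vehicle and positive-control wells. Values are the mean of two replicates. The cells were mouse Ba/F3 clones that were CRISPR/Cas9-edited at a target exon or were edited controls, exposed on pre-printed 384-well plates to a 528-compound library at five concentrations spanning a 10,000-fold range. Plates held 10,000 cells per well in RPMI with 10% FBS for 72 h at 37 °C and 5% CO2.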

[2] = tested on: Ba/F3 P210-BCR-ABL1 RUNX1wt/wt control (mouse)
Method in brief: as §1

[3] = tested on: Ba/F3 P210-BCR-ABL1 RUNX1-/- (mouse)
Method in brief: as §1

Row | SMILES | drug sensitivity score [1] | drug sensitivity score [2] | drug sensitivity score [3]
1 | CN1CCN(C(=O)c2ccc3cc(CCNc4ncnc5ccc(C#N)cc45)ccc3c2)CC1 [Senexin B] | 1.1 ± 1.6 | 0.15 ± 0.21 | 0.8
2 | COCC[n+]1c2c(n(Cc3cnccn3)c1C)C(=O)c1ccccc1C2=O [Sepantronium bromide] | 17.1 ± 1.1 | 6.85 ± 0.49 | 12.9 ± 1.5
3 | Nc1nc2cc(-c3ccc4ncc(C(=O)N5CCOCC5)n4c3)ccc2o1 [Serabelisib] | 2.5 ± 3.5 | 0 | 1.5 ± 1.4
4 | O=C(O)c1ccc2c(c1)nc(Nc1cccc(Cl)c1)c1ccncc12 [Silmitasertib] | 7.25 ± 2 | 4.05 ± 0.21 | 6.45 ± 0.071
5 | CCC(C)(C)C(=O)O[C@H]1C[C@@H](C)C=C2C=C[C@H](C)[C@H](CC[C@@H]3C[C@@H](O)CC(=O)O3)[C@H]21 [Simvastatin] | 0.6 ± 0.85 | 0.05 ± 0.071 | 0.4 ± 0.42
6 | CO[C@H]1C[C@@H]2CC[C@@H](C)[C@@](O)(O2)C(=O)C(=O)N2CCCC[C@H]2C(=O)O[C@H]([C@H](C)C[C@@H]2CC[C@@H](O)[C@H](OC)C2)CC(=O)[C@H](C)/C=C(\C)[C@@H](O)[C@@H](OC)C(=O)[C@H](C)C[C@H](C)/C=C/C=C/C=C/1C [Sirolimus] | 8.4 ± 3.4 | 0.5 ± 0.71 | 7.6 ± 1.7
7 | COCCNCc1ccc(-c2cc3nccc(Oc4ccc(NC(=O)C5(C(=O)Nc6ccc(F)cc6)CC5)cc4F)c3s2)nc1 [Sitravatinib] | 4.6 ± 0.71 | 0 | 8.95 ± 0.35
8 | Cc1c(C(=O)Nc2ccc(N3C[C@@H](C)O[C@@H](C)C3)nc2)cccc1-c1ccc(OC(F)(F)F)cc1 [Sonidegib] | 1.3 ± 1.8 | 0.15 ± 0.21 | 1.3 ± 1.8
9 | C=CCN(/C=C1/C(=O)O[C@H](COC)[C@@]2(C)C1=C(O)C(=O)C1=C2[C@H](OC(C)=O)C[C@]2(C)C(=O)CC[C@@H]12)CC=C [Sonolisib] | 0.7 ± 0.99 | 0 | 1.7 ± 1.1
10 | C=CC(=O)Nc1cccc(Nc2nc(Nc3ccc(OCCOC)cc3)ncc2F)c1 [Spebrutinib] | 0 | 0 | 0
11 | CC(C)n1cnc2c(NCCc3ccc(O)cc3)nc(-c3csc4ccccc34)nc21 [StemRegenin 1] | 3.05 ± 3.9 | 0.8 ± 0.28 | 3.45 ± 2.9
12 | CC(C)(O)CC(=O)NCCn1ccc2ncnc(Nc3ccc(Oc4cccc(C(F)(F)F)c4)c(Cl)c3)c21 [TAK-285] | 0.5 ± 0.71 | 0 | 0
13 | CCS(=O)(=O)c1cccc(-c2cc(C(=O)NC3CCN(C)CC3)c(C)c3[nH]c4ncc(C)cc4c23)c1 [TAK-901] | 3.55 ± 0.49 | 0 | 5.8 ± 0.99
14 | Cc1cccc(-c2[nH]c(CNc3ccccc3F)nc2-c2ccc3ncnn3c2)n1 [TEW-7197] | 0 | 0 | 2.35 ± 3.3
15 | Nc1nc(N)c2nc(-c3cccc(O)c3)c(-c3cccc(O)c3)nc2n1 [TG100-115] | 4.65 ± 0.49 | 0 | 3.1 ± 0.57
16 | CC(C)Oc1ccc(-c2nn([C@@H](C)c3oc4ccc(F)cc4c(=O)c3-c3cccc(F)c3)c3ncnc(N)c23)cc1F [TGR-1202] | 1.2 ± 1.4 | 0 | 3.4 ± 0.99
17 | Cc1cc(C(C)Nc2ccccc2)c2nc(N3CCOCC3)cc(=O)n2c1 (stereo not drawn) [TGX-221] | 2.4 ± 3.1 | 0 | 2.7 ± 2.4
18 | Nc1nc(NC2CC2)cc(-c2cccc(Cl)c2Cl)n1 [TH588] | 4.45 ± 4.7 | 3.6 ± 1.1 | 5.45 ± 0.35
19 | Clc1ccccc1C(c1ccccc1)(c1ccccc1)n1cccn1 [TRAM-34] | 0 | 0 | 0
20 | CN(C(=O)c1ccc(F)cc1C(F)(F)F)C1CCN(c2nnc(-c3ccnn3C)c3ccccc23)CC1 [Taladegib] | 1.8 ± 2.5 | 0 | 0.85 ± 1.2
21 | Cn1ncnc1[C@H]1c2n[nH]c(=O)c3cc(F)cc(c23)N[C@@H]1c1ccc(F)cc1 [Talazoparib] | 16.2 ± 5 | 2.7 ± 0.14 | 15 ± 5.5
22 | C[C@@H]1CN(Cc2ccc(F)cc2)[C@@H](C)CN1C(=O)c1cc2c(C(=O)C(=O)N(C)C)cn(C)c2cc1Cl [Talmapimod] | 0.1 ± 0.14 | 0 | 0.25 ± 0.35
23 | COc1cc(Nc2ncc(F)c(Nc3ccc4c(n3)NC(=O)C(C)(C)O4)n2)cc(OC)c1OC [Tamatinib] | 4.15 ± 0.071 | 5.8 ± 0.28 | 7.15 ± 0.78

Row | SMILES | drug sensitivity score [1] | drug sensitivity score [2] | drug sensitivity score [3]
24 | CC/C(=C(\c1ccccc1)c1ccc(OCCN(C)C)cc1)c1ccccc1 [Tamoxifen] | 7.5 ± 1.3 | 3.5 ± 0.28 | 6.2 ± 1.6
25 | O[C@H]1CC[C@H](Nc2ncc3nc(Nc4c(F)cc(F)cc4F)n([C@H]4CCOC4)c3n2)CC1 [Tanzisertib] | 1 ± 1.4 | 0 | 1.55 ± 0.78
26 | Cc1nc(-c2cn3c(n2)-c2ccc(-c4cnn(C(C)(C)C(N)=O)c4)cc2OCC3)n(C(C)C)n1 [Taselisib] | 3.1 ± 4.1 | 0.4 ± 0.57 | 4.65 ± 0.49
27 | COc1cccc2c1c(O)c(C(=O)N(C)c1ccc(C(F)(F)F)cc1)c(=O)n2C [Tasquinimod] | 2.15 ± 3 | 0.5 ± 0.71 | 0.75 ± 1.1
28 | CCN(c1cc(-c2ccc(CN3CCOCC3)cc2)cc(C(=O)NCc2c(C)cc(C)[nH]c2=O)c1C)C1CCOCC1 [Tazemetostat] | 0.25 ± 0.35 | 0 | 0.45 ± 0.64
29 | CNC(=O)c1cc(COc2nnc(Nc3ccc(Cl)cc3)c3ccoc23)ccn1 [Telatinib] | 0 | 0 | 0.1 ± 0.14
30 | CN1CCC(COc2cnc(-c3cccc(Cn4nc(-c5cccc(C#N)c5)ccc4=O)c3)nc2)CC1 [Tepotinib] | 2.5 ± 3.5 | 0 | 2.8 ± 1.3
31 | COc1cc2c(Nc3ccc(Cl)c(Cl)c3F)ncnc2cc1OC[C@@H]1C[C@@H]2CN(C)C[C@@H]2C1 [Tesevatinib] | 0.9 ± 1.3 | 0 | 0.55 ± 0.49
32 | O=c1sn(-c2cccc3ccccc23)c(=O)n1Cc1ccccc1 [Tideglusib] | 0 | 0 | 0
33 | Cn1cncc1[C@@](N)(c1ccc(Cl)cc1)c1ccc2c(c1)c(-c1cccc(Cl)c1)cc(=O)n2C [Tipifarnib] | 18.5 ± 2.3 | 4.55 ± 0.071 | 22.4 ± 2.8
34 | CC#CC(=O)N1CC[C@@H](n2c(=O)n(-c3ccc(Oc4ccccc4)cc3)c3c(N)ncnc32)C1 [Tirabrutinib] | 0.65 ± 0.78 | 0 | 0.85 ± 0.92
35 | O=C1NC(=O)[C@@H](c2cn3c4c(cccc24)CCC3)[C@@H]1c1c[nH]c2ccccc12 [Tivantinib] | 5.45 ± 0.071 | 3.25 ± 0.071 | 5.6 ± 0.57
36 | COc1cc2nccc(Oc3ccc(NC(=O)Nc4cc(C)on4)c(Cl)c3)c2cc1OC [Tivozanib] | 18.1 ± 0.92 | 14.45 ± 0.071 | 22.8 ± 0.92
37 | CN(C)CCOc1ccc(/C(=C(/CCCl)c2ccccc2)c2ccccc2)cc1 [Toremifene] | 6.9 ± 2.7 | 4.85 ± 0.35 | 5.9 ± 1.7
38 | CC(C)C[C@@H](C(=O)N[C@H](C(=O)OC1CCCC1)c1ccccc1)[C@H](O)C(=O)NO [Tosedostat] | 11.3 ± 4.3 | 1.85 ± 0.49 | 11.4 ± 1.7
39 | Cc1cc(Nc2cc(N3CCN(C)CC3)nc(Sc3ccc(NC(=O)C4CC4)cc3)n2)n[nH]1 [Tozasertib] | 12.3 ± 0.85 | 7.95 ± 0.071 | 17.7 ± 0.14
40 | NC(=S)N/N=C/c1ncccc1N [Triapine] | 5.05 ± 0.071 | 4.65 ± 0.071 | 5.6 ± 0.28
41 | O=c1[nH]c(=O)n([C@H]2C[C@H](O)[C@@H](CO)O2)cc1C(F)(F)F [Trifluridine] | 14.6 ± 0.85 | 8.45 ± 0.21 | 15.5 ± 0.14
42 | O=C(CCCCCCC(=O)Nc1ccc([C@H]2O[C@@H](CSc3nc(-c4ccccc4)c(-c4ccccc4)o3)C[C@@H](c3ccc(CO)cc3)O2)cc1)NO [Tubacin] | 6.2 ± 0.28 | 4.35 ± 0.78 | 6.45 ± 1.2
43 | CN1CCc2c(c3ccccc3n2Cc2ccc(C(=O)NO)cc2)C1 [Tubastatin A] | 3.6 | 0 | 4.05 ± 0.64
44 | Cc1cc(Nc2ncnc3ccc(NC4=NC(C)(C)CO4)cc23)ccc1Oc1ccn2ncnc2c1 [Tucatinib] | 0 | 0 | 0.4 ± 0.57
45 | Nc1cc(F)ccc1NC(=O)c1ccc(CNC(=O)/C=C/c2cccnc2)cc1 [Tucidinostat] | 8.05 ± 4.6 | 4.9 ± 0.14 | 9.05 ± 2.8
46 | COC(=O)c1ccc2c(c1)[nH]c1ncnc(NCCCN3CCCCC3)c12 [UM729] | 3.5 ± 4.5 | 0 | 4.1 ± 1.1
